Measured values published in patent publication US12528815B2, “5-amino-8-(4-pyridyl)-[1,2,4]triazolo[4,3-c]pyrimidin-3-one compounds for use against cancer” (Nxera Pharma UK Limited, priority 2020, dated 2026).

Assays:
[1] = molecular target: T1, human adenosine A1 receptor (Homo sapiens, UniProt P30542); assay: Inhibition binding assay, human adenosine A1 receptor membranes, [3H]DPCPX; conditions: 1 nM [3H]DPCPX, 25° C., 1 h; IC50 converted to Ki with Cheng-Prusoff; read-out: A1 pKi (converted)
T1 construct: expressed in transfected cells; host or cells: HEK293 cells infected with BacMam (the same paragraph also labels the preparation CHO-hA1)
T1 sequence (P30542 1-326): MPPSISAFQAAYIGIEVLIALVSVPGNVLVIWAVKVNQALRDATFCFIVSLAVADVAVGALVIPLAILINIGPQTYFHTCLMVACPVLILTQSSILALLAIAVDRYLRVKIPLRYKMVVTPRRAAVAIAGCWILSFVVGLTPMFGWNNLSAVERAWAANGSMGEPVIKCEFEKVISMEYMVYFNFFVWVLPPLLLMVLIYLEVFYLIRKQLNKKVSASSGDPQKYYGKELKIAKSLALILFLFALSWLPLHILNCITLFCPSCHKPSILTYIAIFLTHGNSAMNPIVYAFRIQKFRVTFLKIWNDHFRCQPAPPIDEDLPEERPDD
Method in brief: (§1)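 Membranes from BacMam-infected HEK293 cells (0.2 μg A2A, 1.4 μg A1) incubated 1 h at 25° C with test compound and 1 nM [3H]ZM241385 (A2A; 50 mM Tris-HCl pH 7.4) or [3H]DPCPX (A1; plus 100 mM NaCl, 10 mM MgCl2). Nonspecific: 1 μM CGS15943 or DPCPX. Filtration, scintillation; IC50 converted to Ki via Cheng-Prusoff.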

[2] = molecular target: T2, human adenosine A2A receptor (Homo sapiens, UniProt P29274); assay: Inhibition binding assay, human adenosine A2A receptor membranes, [3H]ZM241385; conditions: 1 nM [3H]ZM241385, HEK293-hA2A membranes, 25° C., 1 h; IC50 converted to Ki with Cheng-Prusoff; read-out: A2A pKi (converted)
T2 construct: expressed in transfected cells; host or cells: HEK293 cells infected with BacMam
Method in brief: as §1

T2 sequence (P29274 whole entry): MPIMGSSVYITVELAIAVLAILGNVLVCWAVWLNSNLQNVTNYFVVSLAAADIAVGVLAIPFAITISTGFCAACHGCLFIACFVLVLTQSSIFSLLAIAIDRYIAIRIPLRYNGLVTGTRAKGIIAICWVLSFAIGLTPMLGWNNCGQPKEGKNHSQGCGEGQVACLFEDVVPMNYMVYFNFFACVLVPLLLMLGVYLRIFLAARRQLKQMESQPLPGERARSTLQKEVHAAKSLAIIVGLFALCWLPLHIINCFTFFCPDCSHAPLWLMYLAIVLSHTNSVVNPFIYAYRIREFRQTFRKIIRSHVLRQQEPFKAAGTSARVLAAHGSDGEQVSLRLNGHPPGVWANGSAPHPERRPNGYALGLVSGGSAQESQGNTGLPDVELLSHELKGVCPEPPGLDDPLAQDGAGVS

Row | Compound | Ki [1] | Ki [2]
1 | Cc1cc(-c2c(-c3ccccc3)nc(N)n3c(=O)n(CC4CCCS(=O)(=O)C4)nc23)cc(C)n1 (single isomer, unassigned) [Example 2-89-iso-2, 5-amino-8-(2,6-dimethyl-4-pyridyl)-2-[(1,1-dioxothian-3-yl)methyl]-7-phenyl-[1,2,4]triazolo[4,3-c]pyrimidin-3-one] | 0.316 µM | 0.0251 µM
2 | Cc1cc(-c2c(-c3ccccc3)nc(N)n3c(=O)n(Cc4ccccc4CC4CCNCC4)nc23)cc(C)n1 [Example 1-32, 5-amino-8-(2,6-dimethyl-4-pyridyl)-7-phenyl-2-[[2-(4-piperidylmethyl)phenyl]methyl]-[1,2,4]triazolo[4,3-c]pyrimidin-3-one] | 0.00398 µM | 0.000126 µM
3 | Cc1cc(-c2c(-c3ccccc3)nc(N)n3c(=O)n(CCN4C[C@@H](C)O[C@@H](C)C4)nc23)cc(C)n1 [Example 2-100, 5-amino-2-[2-((ds)-2,6-dimethylmorpholin-4-yl)ethyl]-8-(2,6-dimethyl-4-pyridyl)-7-phenyl-[1,2,4]triazolo[4,3-c]pyrimidin-3-one] | > 3.16 µM | 0.316 µM
4 | Cc1cc(-c2c(Cl)nc(N)n3c(=O)n(CCC(F)(F)F)nc23)cc(C)n1 [Example 3-5, 5-amino-7-chloro-8-(2,6-dimethyl-4-pyridyl)-2-(3,3,3-trifluoropropyl)-[1,2,4]triazolo[4,3-c]pyrimidin-3-one] | > 3.16 µM | 0.631 µM
5 | Cc1cc(-c2c(-c3ccccc3)nc(N)n3c(=O)n(Cc4ccc(O)cc4)nc23)cc(C)n1 [Example 1-4, 5-amino-8-(2,6-dimethyl-4-pyridyl)-2-[(4-hydroxyphenyl)methyl]-7-phenyl-[1,2,4]triazolo[4,3-c]pyrimidin-3-one] | 0.501 µM | 0.00126 µM
6 | Cc1cc(-c2c(-c3ccccc3)nc(N)n3c(=O)n(CC4CCCOC4)nc23)cc(C)n1 (single isomer, unassigned) [Example 2-81-iso-1, 5-amino-8-(2,6-dimethyl-4-pyridyl)-7-phenyl-2-(tetrahydropyran-3-ylmethyl)-[1,2,4]triazolo[4,3-c]pyrimidin-3-one] | 0.158 µM | 0.002 µM
7 | Cc1cc(-c2c(-c3ccccc3)nc(N)n3c(=O)n(C)nc23)cc(C)n1 [Example 2-2, 5-amino-8-(2,6-dimethyl-4-pyridyl)-2-methyl-7-phenyl-[1,2,4]triazolo[4,3-c]pyrimidin-3-one] | 0.2 µM | 0.00501 µM
8 | Cc1cc(-c2c(-c3ccc(F)cc3)nc(N)n3c(=O)n(CCC(F)(F)F)nc23)cc(C)n1 [Example 2-33, 5-amino-8-(2,6-dimethyl-4-pyridyl)-7-(4-fluorophenyl)-2-(3,3,3-trifluoropropyl)-[1,2,4]triazolo[4,3-c]pyrimidin-3-one] | 0.631 µM | 0.00126 µM
9 | [2H]c1c([2H])c([2H])c(-c2nc(N)n3c(=O)n(Cc4ccc(F)c(N)n4)nc3c2-c2cc(C)nc(CO)c2)c([2H])c1[2H] [Example 1-51, 5-amino-2-[(6-amino-5-fluoro-2-pyridyl)methyl]-8-[2-(hydroxymethyl)-6-methyl-4-pyridyl]-7-(2,3,4,5,6-pentadeuteriophenyl)-[1,2,4]triazolo[4,3-c]pyrimidin-3-one] | 0.251 µM | 0.002 µM
10 | Cc1cc(-c2c(-c3ccccc3)nc(N)n3c(=O)n(CCN(C)C4CC4)nc23)cc(C)n1 [Example 2-19, 5-amino-2-[2-[cyclopropyl(methyl)amino]ethyl]-8-(2,6-dimethyl-4-pyridyl)-7-phenyl-[1,2,4]triazolo[4,3-c]pyrimidin-3-one] | 0.398 µM | 0.00398 µM
11 | Cc1cc(-c2c(-c3ccccc3)nc(N)n3c(=O)n(C[C@@H]4CN(C(=O)OC(C)(C)C)CCN4C)nc23)cc(C)n1 [Example 2-83, tert-butyl (S)-3-((5-amino-8-(2,6-dimethylpyridin-4-yl)-3-oxo-7-phenyl-[1,2,4]triazolo[4,3-c]pyrimidin-2(3H)-yl)methyl)-4-methylpiperazine-1-carboxylate] | 1 µM | 0.01 µM
